Source: EP0974353A2, “The use of homocysteine derivatives for the preparation of medicaments inhibiting bacterial adhesiveness” (EDMOND PHARMA S.R.L., priority 1998, dated 2000)
Entries after “also recorded” stand apart in the source; their conditions may differ.

Experiments:
[1] = tested on: E. coli strains, ATCC 25922 strain and two others isolated from human urinary infections; experiment: Inhibition of bacterial adhesiveness to human buccal/palatal epithelial cells, E. coli; assay type: cell-based; conditions: three E. coli strains; for inhibitory activity on adhesiveness: even at the maximum tested concentration (10 mcg/ml)
Description: (§1) Said procedures consist in incubating the active substance with bacteria in order to interfere with their adhesiveness mechanism and subsequently adding mucosa cells, observing the obtained result.
(§2) Human epithelial cells were collected from buccal and palatal mucosa of healthy volunteers by a sterile spatula, subsequently immersed in 2 ml of physiological saline buffered with phosphate buffer, combining then the suspensions from different volunteers.
(§3) Tests were carried out with three different E. coli strains, ATCC 25922 strain and two others isolated from human urinary infections, as well as with three S. aureus strains, ATCC 25923 strain and two others from human respiratory infections, using concentrations of 1.25, 2.5, 5 and 10 mcg/ ml for each tested compound.

bacterial adhesiveness = experiment: Inhibition of bacterial adhesiveness, bacterium not specified; assay type: cell-based; conditions: bacterium and concentration not given; general statement
Description: as §1, §2, §3

[2] = tested on: S. aureus strains, ATCC 25923 strain and two others from human respiratory infections; experiment: Inhibition of bacterial adhesiveness to human buccal/palatal epithelial cells, S. aureus; assay type: cell-based
Description: as §1, §2, §3

[3] = rank among the erdosteine metabolites; from R. Scuri et al.; cited from earlier work

SMILES	inhibitory activity on adhesiveness [1]	inhibition of bacterial adhesiveness (bacterial adhesiveness)	also measured
N[C@@H](CCS)C(=O)O [homocysteine]			inhibitory activity on adhesiveness, difference compared with the control test ([1]; concentration not stated (tested 1.25, 2.5, 5 and 10 mcg/ml)): some difference, which however was not statistically significant
CC(=O)N[C@@H](CS)C(=O)O [N-acetylcysteine]	no inhibitory activity	much less active, or even inactive	activity in reducing bacterial adhesiveness ([2]; incubation with S. aureus, concentration not stated (tested 1.25, 2.5, 5 and 10 mcg/ml)): no specific activity
O=C(O)CSCC(=O)NC1CCSC1=O (stereo not shown) [erdosteine, N-(thiodiglycoyl)homocysteine gamma-thiolactone]		not inhibited in a statistically significant way; also recorded: almost devoid of such an activity	
O=C(O)CSCC(=O)NC(CCS)C(=O)O (stereo not shown) [compound (A), N-(Thiodiglycoyl)homocysteine]		remarkable inhibitory activity	inhibitory activity of bacterial adhesiveness ([1]; already at a concentration of 2.5 mcg/ml, compared with the control (bacteria with no tested compound)): significant inhibitory activity; mucolytic activity [3]: lowest mucolytic activity; reduction of S. aureus adhesiveness to epithelial cells ([2]; at concentrations of 2.5 to 10 mcg/ml): significant reduction
CC(=O)N[C@@H](CCS)C(=O)O [N-acetylhomocysteine]	no inhibitory activity		
